According to US7479385B2, “Sugar kinases with expanded substrate specificity and their use” (Wisconsin Alumni Research Foundation, priority 2003, dated 2009):
Like-named read-outs stand apart in the source and are kept apart here.

What was measured:
[1] = target: T1, E. coli GalK M173L mutant (Escherichia coli, UniProt P0A6T3, M173L); assay: Substrate screen / percent conversion of 45 sugars, M173L; type: biochemical; settings: in 3 hr, 37° C.; 8 mM sugar, 14 mM ATP, 3.5 mM MgCl2, 15.0 μM enzyme
T1 construct: His-tag (concluded from Ni-NTA purification and vector pET15b); made in house
Description: (§1) Characterization of GalK Mutants. […] The mutant enzymes were purified by using metal affinity chromatography on Ni-NTA Spin Columns (QIAGEN, Valencia, Calif.) and fractions containing homogenous protein were collected, concentrated and quantified using the Bradford protein assay. The DNS assay was used to assess the substrate specificity of the purified GalK mutants as previously described. […] For each sugar, the DNS assay was used to monitor the reaction progress and control assays in the absence of enzyme or sugar were performed in parallel. Standard curves for each sugar were prepared as described. To assess general percent conversion, each reaction contained 15.0 (M enzyme, 8 mM sugar, 14 mM ATP and 3.5 mM MgCl2. The reactions were incubated at 37° C. for 3 hrs after which the reactions were quenched with MeOH, centrifuged (10 min, 12,000 rpm) and then the supernatant (diluted 20-fold) submitted for LC-MS and MS/MS analysis. For monosaccharide kinetic data determination, the sugar concentration was varied over a range of 1-8 mM, under saturating ATP (14 mM). Reaction progress was assessed via the DNS assay, wherein a change in absorbance at 575 nm as a function of time was obtained and the initial velocity determined by the slope of the linear phase in the progress curve. The kinetic data was analyzed using Enzyme Kinetics Module software (SSPS, Inc., Chicago, Ill.) as previously described.
Characterization of Engineered E. coli GalK Mutants.

[2] = target: L. lactis GalK Y385H (Lactococcus lactis subsp. lactis, UniProt Q9R7D7, Y385H); settings: cited from earlier work
[3] = target: T2, E. coli GalK double mutant M173L-Y371H (Escherichia coli, UniProt P0A6T3, M173L/Y371H); assay: Steady-state kinetic profiling (DNS assay), Table 2, M173L-Y371H; type: biochemical; settings: sugar 1-8 mM, saturating ATP (14 mM)
T2 construct: His-tag (concluded from Ni-NTA purification and vector pET15b); made in house
Description: as §1, with “The kinetic data was analyzed using Enzyme Kinetics Module software (SSPS, Inc., Chicago, Ill.) as previously described.” left out

[4] = target: T3, L. lactis wild-type GalK (Lactococcus lactis subsp. lactis, UniProt Q9R7D7); settings: in vitro, cited from earlier work
T3 sequence (Q9R7D7 1-399): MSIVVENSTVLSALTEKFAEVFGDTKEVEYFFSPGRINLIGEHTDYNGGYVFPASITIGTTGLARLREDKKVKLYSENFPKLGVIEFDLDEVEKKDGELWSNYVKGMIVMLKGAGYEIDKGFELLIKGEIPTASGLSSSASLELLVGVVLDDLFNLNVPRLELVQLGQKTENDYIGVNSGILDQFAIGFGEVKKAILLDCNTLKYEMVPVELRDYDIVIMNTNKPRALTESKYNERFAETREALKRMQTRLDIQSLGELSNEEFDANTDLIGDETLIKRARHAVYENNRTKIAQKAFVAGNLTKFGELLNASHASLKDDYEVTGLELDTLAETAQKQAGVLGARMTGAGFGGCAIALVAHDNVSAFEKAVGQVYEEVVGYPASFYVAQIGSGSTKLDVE

[5] = target: T4, E. coli GalK mutant M173L (Escherichia coli, UniProt P0A6T3, M173L); assay: Steady-state kinetic profiling (DNS assay), Table 2, M173L; type: biochemical; settings: sugar 1-8 mM, saturating ATP (14 mM)
T4 construct: His-tag (concluded from Ni-NTA purification and vector pET15b); made in house
Description: as §1, with “The kinetic data was analyzed using Enzyme Kinetics Module software (SSPS, Inc., Chicago, Ill.) as previously described.” left out

T2 sequence (P0A6T3 whole entry M173L/Y371H): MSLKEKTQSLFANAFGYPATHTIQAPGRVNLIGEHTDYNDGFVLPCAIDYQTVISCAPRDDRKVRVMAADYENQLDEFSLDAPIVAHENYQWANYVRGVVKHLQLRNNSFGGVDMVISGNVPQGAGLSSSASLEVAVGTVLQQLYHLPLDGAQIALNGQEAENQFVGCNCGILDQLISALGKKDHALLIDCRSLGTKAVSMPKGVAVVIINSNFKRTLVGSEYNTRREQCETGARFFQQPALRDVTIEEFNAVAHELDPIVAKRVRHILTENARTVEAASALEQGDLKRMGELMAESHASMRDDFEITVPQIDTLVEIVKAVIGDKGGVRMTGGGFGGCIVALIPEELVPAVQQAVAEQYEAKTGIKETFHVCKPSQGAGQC
T4 sequence (P0A6T3 whole entry M173L): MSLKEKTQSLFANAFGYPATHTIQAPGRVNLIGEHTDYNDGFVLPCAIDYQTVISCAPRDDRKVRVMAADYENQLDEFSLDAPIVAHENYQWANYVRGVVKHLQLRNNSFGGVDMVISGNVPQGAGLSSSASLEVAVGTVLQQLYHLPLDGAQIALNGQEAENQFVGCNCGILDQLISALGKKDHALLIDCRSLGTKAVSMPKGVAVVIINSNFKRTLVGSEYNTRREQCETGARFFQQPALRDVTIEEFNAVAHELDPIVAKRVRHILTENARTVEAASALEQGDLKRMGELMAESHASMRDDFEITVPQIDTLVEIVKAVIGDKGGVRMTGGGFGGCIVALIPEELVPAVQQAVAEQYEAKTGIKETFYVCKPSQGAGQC
Sequence of L. lactis GalK Y385H (Q9R7D7 whole entry Y385H): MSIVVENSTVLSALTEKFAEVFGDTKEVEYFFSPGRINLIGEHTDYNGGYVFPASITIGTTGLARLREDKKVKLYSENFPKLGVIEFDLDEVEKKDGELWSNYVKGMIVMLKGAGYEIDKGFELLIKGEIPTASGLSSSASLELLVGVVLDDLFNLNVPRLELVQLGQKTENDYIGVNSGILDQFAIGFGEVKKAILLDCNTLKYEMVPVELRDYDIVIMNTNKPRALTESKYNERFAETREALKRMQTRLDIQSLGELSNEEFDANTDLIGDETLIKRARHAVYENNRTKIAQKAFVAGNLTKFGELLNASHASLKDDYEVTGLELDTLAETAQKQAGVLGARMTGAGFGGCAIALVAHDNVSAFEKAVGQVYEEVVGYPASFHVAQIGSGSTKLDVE
T1 sequence (P0A6T3 whole entry M173L): as the sequence (P0A6T3 whole entry M173L) above

O=C[C@H](O)[C@@H](O)[C@H](O)[C@H](O)CO [D-Glc (27), D-glucose]
conversion by M173L [1]: 20% | activity with L. lactis GalK Y385H (in words) [2]: weak activity | Km ([3]; read-out: Km, M173L-Y371H (D-Glc column)): 4 mM | Vmax, M173L-Y371H [3]: 0.02 (±0.01) mM min^−1 | conversion / activity with L. lactis wild-type GalK (in words) [4]: weak activity | conversion / activity with L. lactis wild-type GalK (in words) ([4]; listed as D-glucose (27)): in vitro conversion | Km ([5]; read-out: Km, M173L (D-Glc column)): 2.6 mM | Vmax, M173L [5]: 0.02 (±0.01) mM min^−1
